Measured values as given in ChEMBL document CHEMBL1151980, “Tubulin-interactive natural products as anticancer agents” (2009).

Test system: B16
Experiment: In vivo antitumor activity against mouse B16 cells assessed as increase in life span
Type: functional

SMILES: CC(=O)O[C@H]1C(=O)[C@@]2(C)[C@H]([C@H](OC(=O)c3ccccc3)[C@]3(O)C[C@H](OC(=O)[C@H](O)[C@@H](NC(=O)c4ccccc4)c4ccccc4)C(C)=C1C3(C)C)[C@]1(OC(C)=O)CO[C@@H]1C[C@@H]2O [PACLITAXEL]
- Activity: 32%
